pIC50: −log10 of the molar value.
Legend:
P2X purinoceptor 7 [1] = target: T1, P2X purinoceptor 7 (Homo sapiens, UniProt Q99572); experiment: Antagonist activity at human P2X7 receptor by calcium flux assay
T1 sequence (Q99572 whole entry): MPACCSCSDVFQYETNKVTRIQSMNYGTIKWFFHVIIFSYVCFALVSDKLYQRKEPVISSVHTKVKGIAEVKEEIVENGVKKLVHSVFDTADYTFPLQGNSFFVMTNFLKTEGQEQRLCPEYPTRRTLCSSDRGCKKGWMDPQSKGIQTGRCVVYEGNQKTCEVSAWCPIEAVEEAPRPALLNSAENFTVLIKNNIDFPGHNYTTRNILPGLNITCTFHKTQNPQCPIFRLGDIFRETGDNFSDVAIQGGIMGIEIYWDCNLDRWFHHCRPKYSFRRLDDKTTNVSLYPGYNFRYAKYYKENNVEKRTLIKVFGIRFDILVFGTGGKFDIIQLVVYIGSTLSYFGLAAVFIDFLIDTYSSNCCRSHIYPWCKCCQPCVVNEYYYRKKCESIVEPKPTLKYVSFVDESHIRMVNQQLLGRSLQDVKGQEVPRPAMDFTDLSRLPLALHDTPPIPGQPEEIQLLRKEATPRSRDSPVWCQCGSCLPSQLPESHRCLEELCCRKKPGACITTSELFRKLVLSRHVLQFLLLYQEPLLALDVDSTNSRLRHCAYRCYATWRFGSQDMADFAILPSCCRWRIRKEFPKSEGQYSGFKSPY

P2X purinoceptor 7 [2] = target: T2, P2X purinoceptor 7 (Rattus norvegicus, UniProt Q64663); experiment: Antagonist activity at rat P2X7 receptor by calcium flux assay
T2 sequence (Q64663 whole entry): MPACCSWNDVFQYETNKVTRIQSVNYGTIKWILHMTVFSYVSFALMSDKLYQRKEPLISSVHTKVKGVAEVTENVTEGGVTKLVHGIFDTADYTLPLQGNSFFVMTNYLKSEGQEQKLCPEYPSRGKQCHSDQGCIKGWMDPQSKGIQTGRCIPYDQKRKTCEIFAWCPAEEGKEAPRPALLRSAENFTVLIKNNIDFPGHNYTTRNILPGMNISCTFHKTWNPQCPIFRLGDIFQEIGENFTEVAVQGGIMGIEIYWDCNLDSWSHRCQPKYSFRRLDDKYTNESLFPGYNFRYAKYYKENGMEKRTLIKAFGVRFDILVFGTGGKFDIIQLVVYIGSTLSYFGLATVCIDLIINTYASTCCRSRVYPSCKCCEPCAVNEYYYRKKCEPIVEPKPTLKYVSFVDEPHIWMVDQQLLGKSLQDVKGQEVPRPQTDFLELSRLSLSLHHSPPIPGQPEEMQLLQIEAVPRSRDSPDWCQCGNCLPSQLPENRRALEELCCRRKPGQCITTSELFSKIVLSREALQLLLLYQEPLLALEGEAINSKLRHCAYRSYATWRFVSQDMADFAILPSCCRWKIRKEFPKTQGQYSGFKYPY

P2X purinoceptor 7 [3] = target: T3, P2X purinoceptor 7 (Mus musculus, UniProt Q9Z1M0); experiment: Antagonist activity at mouse P2X7 receptor by calcium flux assay
T3 sequence (Q9Z1M0 whole entry): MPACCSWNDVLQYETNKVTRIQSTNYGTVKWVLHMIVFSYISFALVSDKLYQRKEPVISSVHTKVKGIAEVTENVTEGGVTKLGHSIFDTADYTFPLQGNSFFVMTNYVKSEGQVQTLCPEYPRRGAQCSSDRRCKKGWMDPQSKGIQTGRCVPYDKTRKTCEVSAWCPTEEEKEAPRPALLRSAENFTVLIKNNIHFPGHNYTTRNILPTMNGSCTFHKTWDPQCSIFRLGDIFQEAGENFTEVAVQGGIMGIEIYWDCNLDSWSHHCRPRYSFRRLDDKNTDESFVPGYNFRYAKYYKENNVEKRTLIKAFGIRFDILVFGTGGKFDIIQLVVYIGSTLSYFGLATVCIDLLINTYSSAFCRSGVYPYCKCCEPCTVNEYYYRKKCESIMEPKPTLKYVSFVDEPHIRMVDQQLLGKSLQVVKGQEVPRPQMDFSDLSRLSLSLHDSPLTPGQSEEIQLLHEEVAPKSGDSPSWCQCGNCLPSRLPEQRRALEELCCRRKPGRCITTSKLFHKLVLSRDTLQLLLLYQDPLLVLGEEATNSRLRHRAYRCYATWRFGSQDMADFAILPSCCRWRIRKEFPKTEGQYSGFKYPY

P2X purinoceptor 7 [4] = target: T1, P2X purinoceptor 7; experiment: Antagonist activity at human P2X7 receptor expressed in HEK293 by fluorescence plate reader analysis; type: cell-based
P2X purinoceptor 7 [5] = target: T1, P2X purinoceptor 7; experiment: Antagonist activity at P2X7 receptor in human THP-1 cells assessed as reduction in ATP induced IL-1 beta release; type: cell-based
P2X purinoceptor 7 [6] = target: T3, P2X purinoceptor 7; experiment: Antagonist activity at P2X7 receptor in mouse Peritoneal macrophage cells assessed as reduction in ATP induced IL-1 beta release; type: cell-based
[7] = target: T4, P2X purinoceptor 7 (Mus musculus) (UniProt Q9Z1M0); experiment: Antagonist activity at P2X7 receptor in mouse Peritoneal macrophage cells assessed as ATP induced dye uptake at 10 uM relative to control; type: cell-based
T4 sequence (whole entry): T3 sequence (Q9Z1M0 whole entry)

P2X purinoceptor 7 [8] = target: T1, P2X purinoceptor 7; experiment: Antagonist activity at human P2X7 receptor expressed in 1321N1 cells by FLIPR assay; type: cell-based
P2X purinoceptor 7 [9] = target: T1, P2X purinoceptor 7; experiment: Inhibition of human P2X7 receptor transfected in HEK293 cells by calcium influx assay; type: cell-based
P2X purinoceptor 7 [10] = target: T1, P2X purinoceptor 7; experiment: Antagonist activity at human P2X7 receptor
P2X purinoceptor 7 [11] = target: T1, P2X purinoceptor 7; experiment: Inhibition of P2X7 (unknown origin) assessed as reduction in IL-1 beta release
P2X purinoceptor 7 [12] = target: T1, P2X purinoceptor 7; experiment: Inhibition of P2X7 in human THP-1cells assessed as reduction in YO-PRO-1 iodide dye uptake measured after 24 hrs by fluorescence based assay; type: cell-based

With O=c1snc(Cc2c(F)cccc2Cl)n1CC1CCC(F)(F)CC1 the pIC50 (P2X purinoceptor 7 [1]) was greater than 6.70, the pIC50 (P2X purinoceptor 7 [2]) was greater than 6.70 and the pIC50 (P2X purinoceptor 7 [3]) was greater than 6.70.
With C[C@@H]1CCC[C@](O)(CNC(=O)c2cn(CC3CCCO3)c3cccc(Cl)c23)C1 (stereo not given in full) the pIC50 (P2X purinoceptor 7 [4]) was 8.00.
Compound COCCn1cc(C(=O)NCc2ccc3c(c2)OCO3)c2c(Cl)cccc21 has a pIC50 (P2X purinoceptor 7 [4]) of less than 6.00.
In the case of COCCn1cc(C(=O)NCc2nc3ccccc3s2)c2c(Cl)cccc21, the pIC50 (P2X purinoceptor 7 [4]) was less than 6.00.
In the case of CC1=C(C(c2ccc([N+](=O)[O-])cc2)n2cc(COCc3ccco3)nn2)C(=O)c2ccccc2C1=O (stereo not given), the pIC50 (P2X purinoceptor 7 [5]) was 3.74, the pIC50 (P2X purinoceptor 7 [6]) was 3.73 and the inhibition ([7]; filed as antagonist) was 60%.
For CC1=C(C(c2ccccc2)n2cc(COCc3ccco3)nn2)C(=O)c2ccccc2C1=O (stereo not given), the pIC50 (P2X purinoceptor 7 [5]) was 3.86, the pIC50 (P2X purinoceptor 7 [6]) was 3.84 and the inhibition ([7]; filed as antagonist) was 60%.
For Cc1ccc(CO)cc1Nc1nc(=O)ccn1Cc1cc(F)c(F)c(F)c1, the pIC50 (P2X purinoceptor 7 [8]) was 8.40.
CS(=O)(=O)C[C@]1(O)CC[C@@](F)(C(=O)NCc2ccc(Cl)cc2Cl)c2cccnc21 showed a pIC50 (P2X purinoceptor 7 [9]) greater than 7.30.
O=c1onc(Cc2c(F)cccc2Cl)n1CC1CCCCCC1 was tested, and the pIC50 (P2X purinoceptor 7 [1]) was greater than 6.70, the pIC50 (P2X purinoceptor 7 [2]) was greater than 6.70 and the pIC50 (P2X purinoceptor 7 [3]) was 6.70.
In the case of O=C1CCC(C(=O)NCc2cccc(C(F)(F)F)c2Cl)c2cccnc21 (stereo not given), the pIC50 (P2X purinoceptor 7 [9]) was greater than 7.30.
Cc1ncccc1Cc1noc(=O)n1CC1CCC(F)(F)CC1 showed a pIC50 (P2X purinoceptor 7 [1]) of 6.70, a pIC50 (P2X purinoceptor 7 [2]) of 6.00 and a pIC50 (P2X purinoceptor 7 [3]) of 6.00.
In the case of Cc1c(F)cc(CO)cc1Nc1nc(=O)cnn1Cc1cc(F)c(F)c(F)c1, the pIC50 (P2X purinoceptor 7 [8]) was 8.52.
COc1cnc(C)c(Nc2nc(=O)c3c(n2Cc2cc(F)c(F)c(F)c2)CCC3)c1 was tested, and the pIC50 (P2X purinoceptor 7 [10]) was 7.00.
O=C(NCc1cccc(C(F)(F)F)c1Cl)C1(F)CCC(O)c2ncccc21 (stereo not given) gave a pIC50 (P2X purinoceptor 7 [9]) greater than 7.30.
CC1=C(C(c2ccc(Br)cc2)n2cc(COCc3ccco3)nn2)C(=O)c2ccccc2C1=O (stereo not given) gave an inhibition [7] of less than 60%.
For C[C@H](CO)n1ccc2c(NC(=O)CC34CC5CC(CC(C5)C3)C4)cccc2c1=O, the pIC50 (P2X purinoceptor 7 [11]) was 9.00 and the pIC50 (P2X purinoceptor 7 [12]) was 6.28.
In the case of COc1ccc(Nc2nc(=O)c3[nH]cnc3n2Cc2ccc(F)c(F)c2)c(C)c1, the pIC50 (P2X purinoceptor 7 [10]) was greater than 8.00.
Compound COc1ccc(Nc2nc(=O)c3onc(C)c3n2Cc2ccc(F)c(F)c2)c(C)c1 has a pIC50 (P2X purinoceptor 7 [10]) greater than 8.00.
Compound O=c1onc(Cc2c(F)cccc2Cl)n1CC1CC2CCC1C2 (stereo not given) has a pIC50 (P2X purinoceptor 7 [1]) greater than 6.70, a pIC50 (P2X purinoceptor 7 [2]) greater than 6.70 and a pIC50 (P2X purinoceptor 7 [3]) of 6.70.
Compound Cn1nccc1Nc1nc(=O)c(F)cn1Cc1cc(F)c(F)c(F)c1 has a pIC50 (P2X purinoceptor 7 [8]) of less than 7.00.
With CCc1cccc(Nc2nc(=O)c3[nH]cnc3n2Cc2ccc(F)cc2)c1CC the pIC50 (P2X purinoceptor 7 [10]) was greater than 8.00.
COc1ccc(C)c(Nc2nc(=O)cnn2Cc2cncc(F)c2)c1 showed a pIC50 (P2X purinoceptor 7 [8]) of 7.00.
Compound CC1CC(F)(F)CCN1Cn1c(Cc2c(F)cccc2Cl)noc1=O (stereo not given) has a pIC50 (P2X purinoceptor 7 [1]) greater than 6.70, a pIC50 (P2X purinoceptor 7 [2]) greater than 6.70 and a pIC50 (P2X purinoceptor 7 [3]) greater than 6.70.
Work on O=c1onc(CN2CCOc3ccccc32)n1CC1CCC(F)(F)CC1 yielded a pIC50 (P2X purinoceptor 7 [1]) greater than 6.70, a pIC50 (P2X purinoceptor 7 [2]) greater than 6.70 and a pIC50 (P2X purinoceptor 7 [3]) greater than 6.70.
CC1=C(C(c2ccc(F)cc2)n2cc(COCc3ccco3)nn2)C(=O)c2ccccc2C1=O (stereo not given) showed an inhibition [7] of less than 60%.
With O=C(NCc1ccc(Cl)cc1Cl)[C@@]1(F)CC[C@](O)(CN2CC(O)C2)c2ncccc21 the pIC50 (P2X purinoceptor 7 [9]) was greater than 7.30.
COCCn1cc(C(=O)NCc2ccco2)c2c(Cl)cccc21 gave a pIC50 (P2X purinoceptor 7 [4]) of less than 6.00.
Work on O=C1CO[C@]2(CC[C@@](F)(C(=O)NCc3ccc(Cl)cc3Cl)c3cccnc32)CN1 yielded a pIC50 (P2X purinoceptor 7 [9]) greater than 7.30.
For COCCn1cc(C(=O)NCc2ccc(C(F)(F)F)cc2)c2c(Cl)cccc21, the pIC50 (P2X purinoceptor 7 [4]) was less than 6.00.
Work on O=c1onc(Cc2ccccc2Cl)n1CC1CCC(F)(F)CC1 yielded a pIC50 (P2X purinoceptor 7 [1]) greater than 6.70, a pIC50 (P2X purinoceptor 7 [2]) greater than 6.70 and a pIC50 (P2X purinoceptor 7 [3]) of 6.70.
With Cc1ccc(OCCO)cc1Nc1nc(=O)cnn1Cc1cc(F)c(F)c(F)c1 the pIC50 (P2X purinoceptor 7 [8]) was 8.01.
